We go through six compounds from paper PMC8111002 (Communications Biology, 2021).

The target of one experiment is Stx1a A-subunit (Enterobacteria phage H19B, UniProt P08026). The experiment is described as follows: biochemical. It is filed as binding, Escherichia coli.
The next experiment deals with Stx1a (UniProt P08026+P69178). The experiment is described as follows: cell-based. Also noted: species or system Escherichia coli.
In the next experiment the target is Stx2a A-subunit (Escherichia phage 933W, UniProt P09385). The experiment is described as follows: biochemical. In kind it is binding, Escherichia coli.
The next experiment addresses Stx2a (Escherichia phage 933W, UniProt P09385+P09386). The experiment is described as follows: cell-based. The arrangement: species or system Escherichia coli.
The next experiment relates to A-subunit. It is filed as binding, Escherichia coli.
Experiment [1] deals with B-subunits of Stx1a and Stx2a. The following applies: cited from earlier work.
Another experiment has as its system EHEC. The following applies: mouse, in vivo; cited from earlier work.

Square brackets hold non-standard residues; d marks the D form. Ends that are not written are not given here. Peptide text beside a SMILES is read from it. βAla = NCCC(=O)O

As to `CSCC[C@H](NC(=O)[C@H](C)NC(=O)[C@@H](N)CCSC)C(=O)N[C@@H](CCSC)C(=O)NCCC(=O)N[C@@H](CCCNC(=N)N)C(=O)N[C@@H](CCCNC(=N)N)C(=O)N[C@@H](CCCNC(=N)N)C(=O)N[C@@H](CCCNC(=N)N)C(=O)N[C@@H](C)C(N)=O` [MMβA-mono] (H-MAMM[βAla]RRRRA-NH2), the Kd was found to be 0.032 µM on Stx1a A-subunit and 0.05 µM on Stx2a A-subunit. Moreover, the IC50 against Stx1a amounted to 59.2 µM; against Stx2a it was 9.6 µM.

Turning to ARRRRA, the “inhibition of the binding between MMβA-mono and the A-subunit” value (“inhibition” for short) in the experiment with A-subunit is recorded as “efficiently inhibited”.

For Arg-Arg-Arg-Arg (RRRR), the “inhibition” value in the experiment on A-subunit is “efficiently inhibited”.

Turning to Arg-Arg-Arg-Arg-Ala (RRRRA), the “inhibition” value in the experiment with A-subunit is “efficiently inhibited”.

On to “Galα[1-4]-Galβ[1-4]-Glcβ- [free trisaccharide]”, for which, in experiment [1], the Kd entry is “mM order”.

Turning to MMARRRR [MMA-tet], in the experiment with EHEC, the “inhibitory effects against the lethality in EHEC infected mice” value is listed as “potent inhibitory effects”.

Usually Kd stands for the free concentration of one partner at which half of the binding sites on the other are occupied at equilibrium, for simple one-to-one binding. The IC50 is the concentration that inhibits the measured activity by half.
